From patent US8921364B2, “Modulators of calcium release-activated calcium channel” (Rhizen Pharmaceuticals SA, priority 2009, dated 2014)
Where a name gives a salt, the structure may show the parent alone.

Tests used:
[1] = system: female Balb/C mice; experiment: Concanavalin (Con) A induced hepatitis in female Balb/C mice; format: in vivo; settings: 10 mg/kg b. wt, oral, 1 hour prior to Con A, blood after 24 hours
Method: Con A is often used to prepare experimental animals with high levels of cytotoxic T-lymphocytes, because these cells are involved in the development of viral infections in humans. In this model, animals were administered test compounds orally 1 hour prior to intravenous administration of Con A. Blood samples were collected after 24 hours for determination of Serum glutamic oxaloacetic transaminase (SGOT) and Serum glutamic pyruvic transaminase (SGPT) in Serum.

[2] = system: male DBA/1 Ola HSD mice; experiment: Collagen-induced arthritis in male DBA/1 Ola HSD mice; format: in vivo; settings: 10 mg/kg b. wt, daily, po, qd
Method: Collagen induced arthritis in rodent models have been widely used to illustrate and understand the development of the disease besides serving as a surrogate for validation of therapeutic targets for human rheumatoid arthritis. Mice were anesthetized with Isoflurane and given 150 μl of Bovine Type II collagen in Freund's complete adjuvant injections (day 0 and day 21). Treatment was initiated on study day 0 and continued once daily, every day (po, qd). Starting on day 18, clinical scores were given daily for each of the paws (right front, left front, right rear, left rear) and continued till the day of sacrifice (day 34). Daily administration of the test compound (Example 69) at 10 mg/kg b. wt alleviated arthritic symptoms, disease progression, and incidence by 30% compared to the control animals.

[3] = system: female Balb/C mice; experiment: TNCB induced contact hypersensitivity in female Balb/c mice; format: in vivo; settings: 10 mg/kg b. wt, oral, 24 h after TNCB challenge
Method: Contact hypersensitivity is a simple in vivo assay of cell-mediated immune function. In this procedure, exposure of epidermal cells to exogenous haptens results in a delayed type hypersensitive reaction that can be measured and quantified. Briefly, 7% TNCB solution was applied to the abdominal region of 8 week old Balb/c mice. Ear thickness was measured 7 days after TNCB sensitization. Compounds were administered orally followed by an application of 1% TNCB to inside and outside of ear pinnae. Ear thickness was measured 24 h after TNCB challenge

[4] = system: male Balb/c mice; experiment: Foot paw delayed type hypersensitivity in male Balb/c mice; format: in vivo; settings: 10 mg/kg, daily treatment day 0 to day 10
Method: DTH swelling responses can be used to follow the activity of immunosuppressive molecules and/or suppressor T cells in vivo. Intradermal antigen (methylated BSA) injections were given to mice (at base of tail) on day 0 and day 7. Compounds were administered once daily from day 0 to day 10 Methylated BSA was injected into the right hind footpad of animals on day 10. Weight difference induced by antigen was determined by weighing the right and left hind paws 24 h after injection of methylated BSA (day 11).

[5] = system: guinea pigs; experiment: OVA-induced asthma in guinea pigs; format: in vivo; settings: 10 mg/kg b. wt, oral, 1 h before OVA challenge
Method: Pulmonary eosinophilia and airway remodelling in conjunction with altered neural control of airway tone and airway epithelial desquamation contributes to Airway Hyper-responsiveness (AHR) in asthma. For determination of eosinophil reduction, animals were sensitized with OVA on d0, d7, and d14 followed by another round (0.1% w/v) through inhalation on d19 & d20. Compounds were administered orally 1 h before OVA challenge (0.3%). BAL fluid was collected on d22 for differential count and cytokine estimation. For determination of change in respiratory parameters, animals were subjected to whole body plethysmography immediately after ova challenge.

[6] = target: CRAC channels (Homo sapiens (Human), UniProt Q96D31); experiment: In-vitro CRAC channel inhibition assay in Jurkat cells (thapsigargin-induced calcium influx); format: cell-based; settings: Jurkat cells, thapsigargin-induced calcium influx
Method: Inhibition of CRAC channels was determined following thapsigargin (Sigma, Cat # T9033) induced endoplasmic calcium release in Jurkat cells. […] Cells were centrifuged and re-suspended in equal volumes ° f Ca^2+ and Mg^2+ free Hanks buffer and Fluo-8 NW dye (ABD Bioquest, Inc., Sunnyvale, Calif.) loading solution at 2×10^5 cells/100 μl/well in 96-well black plate. Plate is incubated at 37° C., 5% CO2 for 30 min followed by further 15 min incubation at room temperature. Test compounds (DMSO stocks diluted in Ca^2+ and Mg^2+ free Hanks buffer) at desired concentrations were added to the wells and incubated for […] Thapsigargin (1 μM final concentration) was added to the wells and incubated for 15 min to inhibit the Sarco-endoplasmic reticulum Ca^2+ ATPase pump thereby depleting endoplasmic calcium and raising cytosolic calcium concentrations. Store-operated calcium entry was initiated by adding extracellular Ca^2+ to a final concentration of 1.8 mM. Fluorescence was monitored over […] on a plate reader (BMG Labtech., Germany) with excitation at 485 nm and an emission wavelength at 520 nm. Data were analyzed using GraphPad Prism. IC50 for each compound was determined based on the percent inhibition of thapsigargin-induced calcium influx into cells.

[7] = target: CRAC channels over the voltage operated channels (VOC) (Homo sapiens (Human), UniProt Q96D31); settings: Yonetoky et al.; cited from earlier work
CRAC channels over the voltage operated channels (VOC), sequence (Q96D31 whole entry): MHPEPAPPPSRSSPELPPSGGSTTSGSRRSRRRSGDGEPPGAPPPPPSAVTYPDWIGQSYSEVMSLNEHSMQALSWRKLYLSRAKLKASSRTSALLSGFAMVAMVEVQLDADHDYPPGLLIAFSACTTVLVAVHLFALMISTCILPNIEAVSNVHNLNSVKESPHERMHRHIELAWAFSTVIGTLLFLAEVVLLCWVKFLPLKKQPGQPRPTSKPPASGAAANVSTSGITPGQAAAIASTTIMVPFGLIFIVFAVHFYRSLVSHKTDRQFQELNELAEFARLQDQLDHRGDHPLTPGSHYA

CRAC channels, sequence (Q96D31 whole entry): as above

SMILES	IC50 [6]	further results
Cc1ncc(C(=O)Nc2ccc(-n3nc(C(F)(F)F)cc3C3CC3)cc2)c(C)n1 [Example 69, N-{4-[5-cyclopropyl-3-(trifluoromethyl)-1H-pyrazol-1-yl]phenyl}-2,4-dimethylpyrimidine-5-carboxamide]		reduction in serum SGOT & SGPT [1]: > 85%; alleviation of arthritic symptoms, disease progression, and incidence compared to control animals [2]: 30%; reduction in ear inflammation [3]: > 70%; reduction in antigen-induced paw inflammation [4]: > 40%; reduction in blood eosinophils [5]: > 70%; respiration (whole body plethysmography) ([5]; plethysmography immediately after ova challenge): improvement in respiration
Cc1oncc1C(=O)Nc1ccc(-n2nc(C(F)(F)F)cc2C2CC2)cc1 [Example 56, N-{4-[5-cyclopropyl-3-(trifluoromethyl)-1H-pyrazol-1-yl]phenyl}-5-methylisoxazole-4-carboxamide]	63.2 nM	
O=C(Cc1ccccn1)Nc1ccc(-n2nc(C3CC3)cc2C2CC2)cc1 [Example 22, N-[4-(3,5-dicyclopropyl-1H-pyrazol-1-yl)phenyl]-2-(pyridin-2-yl)acetamide hydrochloride]	968 nM	
O=C(Nc1ccc(-n2nc(C3CC3)cc2C2CC2)c(F)c1)c1ccncc1 [Example 35, N-[4-(3,5-dicyclopropyl-1H-pyrazol-1-yl)-3-fluorophenyl]isonicotinamide hydrochloride]	185 nM	inhibition at 1 µM ([6]; 1 uM): 100%
Cc1nnsc1C(=O)Nc1ccc(-n2nc(C(F)(F)F)cc2C(F)(F)F)cc1 [YM-58483]		selective index (CRAC channels over VOC) [7]: 31
O=C(Nc1ccc(-n2nc(C(F)(F)F)cc2C2CC2)c(F)c1)c1cccc(F)c1F [Example 87, N-{4-[5-cyclopropyl-3-(trifluoromethyl)-1H-pyrazol-1-yl]-3-fluorophenyl}-2,3-difluorobenzamide]	32.6 nM	

Now from value to molecule, other results behind:

IC50 [6]	SMILES	further results
194 nM	Cc1ncsc1C(=O)Nc1ccc(-n2nc(C(F)(F)F)c(Cl)c2C2CC2)cc1 [Example 80, N-{4-[4-chloro-5-cyclopropyl-3-(trifluoromethyl)-1H-pyrazol-1-yl]phenyl}-4-methylthiazole-5-carboxamide]	
600 nM	Cc1ncncc1NC(=O)Nc1ccc(-n2nc(C(F)(F)F)cc2C2CC2)c(F)c1 [Example 97, 1-{4-[5-cyclopropyl-3-(trifluoromethyl)-1H-pyrazol-1-yl]-3-fluorophenyl}-3-(4-methylpyrimidin-5-yl)urea]	
244 nM	O=C(Nc1ccc(-n2nc(C3CC3)cc2C2CC2)cc1)c1ccncc1F [Example 16, N-[4-(3,5-dicyclopropyl-1H-pyrazol-1-yl)phenyl]-3-fluoroisonicotinamide]	
181 nM	Cc1nnsc1C(=O)Nc1ccc(-n2nc(C3CC3)c(Cl)c2C2CC2)c(F)c1 [Example 37, N-[4-(4-chloro-3,5-dicyclopropyl-1H-pyrazol-1-yl)-3-fluorophenyl]-4-methyl-1,2,3-thiadiazole-5-carboxamide]	
184 nM	Cc1nnsc1C(=O)Nc1ccc(-n2nc(C(F)(F)F)cc2C2CC2)cc1 [Example 52, N-{4-[5-cyclopropyl-3-(trifluoromethyl)-1H-pyrazol-1-yl]phenyl}-4-methyl-1,2,3-thiadiazole-5-carboxamide]	
224 nM	Cc1ncncc1C(=O)Nc1ccc(-n2nc(C3CC3)cc2C2CC2)c(F)c1 [Example 36, N-[4-(3,5-dicyclopropyl-1H-pyrazol-1-yl)-3-fluorophenyl]-4-methylpyrimidine-5-carboxamide]	
